Test results from PubChem BioAssay (NCI).
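Grown in 96-well plates, cells were treated for 48 hours with each compound at five concentrations. Insufficient inhibition: endpoint recorded as highest concentration tested. Definition used: TGI = concentration required for complete inhibition of growth.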

Key:
Assay in all cases: inhibition of tumour cell growth, NCI panel, 48 h
OVCAR-4 ovarian = tested on: OVCAR-4 ovarian
786-0 renal = tested on: 786-0 renal
SR leukemia = tested on: SR leukemia
CAKI-1 renal = tested on: CAKI-1 renal
SF-539 CNS = tested on: SF-539 CNS
KM20L2 colon = tested on: KM20L2 colon
K-562 leukemia = tested on: K-562 leukemia
NCI-H522 lung = tested on: NCI-H522 lung
UO-31 renal = tested on: UO-31 renal
SK-MEL-2 melanoma = tested on: SK-MEL-2 melanoma
SW-620 colon = tested on: SW-620 colon
SK-MEL-5 melanoma = tested on: SK-MEL-5 melanoma
SNB-78 CNS = tested on: SNB-78 CNS
SF-268 CNS = tested on: SF-268 CNS
LOX IMVI melanoma = tested on: LOX IMVI melanoma
IGROV1 ovarian = tested on: IGROV1 ovarian
OVCAR-3 ovarian = tested on: OVCAR-3 ovarian
RPMI-8226 leukemia = tested on: RPMI-8226 leukemia
HOP-62 NSCLC = tested on: HOP-62 NSCLC
TK-10 renal = tested on: TK-10 renal
NCI-H460 lung = tested on: NCI-H460 lung
ACHN renal = tested on: ACHN renal
SNB-19 CNS = tested on: SNB-19 CNS
U251 CNS = tested on: U251 CNS
COLO 205 colon = tested on: COLO 205 colon
M14 melanoma = tested on: M14 melanoma
MOLT-4 leukemia = tested on: MOLT-4 leukemia
HCT-15 colon = tested on: HCT-15 colon
M19-MEL melanoma = tested on: M19-MEL melanoma
NCI-H226 lung = tested on: NCI-H226 lung
SK-MEL-28 melanoma = tested on: SK-MEL-28 melanoma
RXF 393 renal = tested on: RXF 393 renal
NCI-H23 lung = tested on: NCI-H23 lung
RXF-631 renal = tested on: RXF-631 renal
SF-295 CNS = tested on: SF-295 CNS
A549 NSCLC = tested on: A549 NSCLC
OVCAR-8 ovarian = tested on: OVCAR-8 ovarian
UACC-62 melanoma = tested on: UACC-62 melanoma
SN12C renal = tested on: SN12C renal
HCT-116 colon = tested on: HCT-116 colon
LXFL 529 NSCLC = tested on: LXFL 529 NSCLC
EKVX NSCLC = tested on: EKVX NSCLC
A498 renal = tested on: A498 renal
OVCAR-5 ovarian = tested on: OVCAR-5 ovarian
CCRF-CEM leukemia = tested on: CCRF-CEM leukemia
HL-60(TB) leukemia = tested on: HL-60(TB) leukemia
UACC-257 melanoma = tested on: UACC-257 melanoma
XF 498 CNS = tested on: XF 498 CNS
HOP-92 NSCLC = tested on: HOP-92 NSCLC
KM12 colon = tested on: KM12 colon
HT29 colon = tested on: HT29 colon
DMS 273 small cell lung = tested on: DMS 273 small cell lung
MALME-3M melanoma = tested on: MALME-3M melanoma
SNB-75 CNS = tested on: SNB-75 CNS
HCC-2998 colon = tested on: HCC-2998 colon
DLD-1 colon = tested on: DLD-1 colon
DMS 114 small cell lung = tested on: DMS 114 small cell lung
SK-OV-3 ovarian = tested on: SK-OV-3 ovarian
HOP-18 NSCLC = tested on: HOP-18 NSCLC

With COc1ccc2nccc(C3OC(=O)N4CCC(=O)CC34)c2c1 (stereo not drawn) the TGI (OVCAR-4 ovarian) was greater than 100 µM, the TGI (786-0 renal) was greater than 100 µM and the TGI (SR leukemia) was greater than 100 µM. For the same compound, the TGI (CAKI-1 renal) was greater than 100 µM, the TGI (SF-539 CNS) was greater than 100 µM and the TGI (KM20L2 colon) was greater than 100 µM. It also gave a TGI (K-562 leukemia) greater than 100 µM, a TGI (NCI-H522 lung) of 28.7 µM and a TGI (UO-31 renal) greater than 100 µM. The TGI (SK-MEL-2 melanoma) was greater than 100 µM, the TGI (SW-620 colon) was greater than 100 µM and the TGI (SK-MEL-5 melanoma) was greater than 100 µM. For the same compound, the TGI (SNB-78 CNS) was greater than 100 µM, the TGI (SF-268 CNS) was greater than 100 µM and the TGI (LOX IMVI melanoma) was greater than 100 µM. For the same compound, the TGI (IGROV1 ovarian) was greater than 100 µM, the TGI (OVCAR-3 ovarian) was greater than 100 µM and the TGI (RPMI-8226 leukemia) was greater than 100 µM. For the same compound, the TGI (HOP-62 NSCLC) was greater than 100 µM, the TGI (TK-10 renal) was greater than 100 µM and the TGI (NCI-H460 lung) was greater than 100 µM. For the same compound, the TGI (ACHN renal) was greater than 100 µM, the TGI (SNB-19 CNS) was greater than 100 µM and the TGI (U251 CNS) was greater than 100 µM. It also gave a TGI (COLO 205 colon) greater than 100 µM, a TGI (M14 melanoma) greater than 100 µM and a TGI (MOLT-4 leukemia) greater than 100 µM. It also gave a TGI (HCT-15 colon) greater than 100 µM, a TGI (M19-MEL melanoma) greater than 100 µM and a TGI (NCI-H226 lung) greater than 100 µM. For the same compound, the TGI (SK-MEL-28 melanoma) was greater than 100 µM, the TGI (RXF 393 renal) was greater than 100 µM and the TGI (NCI-H23 lung) was greater than 100 µM. The TGI (RXF-631 renal) was greater than 100 µM, the TGI (SF-295 CNS) was greater than 100 µM and the TGI (A549 NSCLC) was greater than 100 µM. The TGI (OVCAR-8 ovarian) was greater than 100 µM, the TGI (UACC-62 melanoma) was greater than 100 µM and the TGI (SN12C renal) was greater than 100 µM. The TGI (HCT-116 colon) was greater than 100 µM, the TGI (LXFL 529 NSCLC) was greater than 100 µM and the TGI (EKVX NSCLC) was greater than 100 µM. For the same compound, the TGI (A498 renal) was greater than 100 µM, the TGI (OVCAR-5 ovarian) was greater than 100 µM and the TGI (CCRF-CEM leukemia) was greater than 100 µM. The TGI (HL-60(TB) leukemia) was greater than 100 µM, the TGI (UACC-257 melanoma) was greater than 100 µM and the TGI (XF 498 CNS) was greater than 100 µM. It also gave a TGI (HOP-92 NSCLC) greater than 100 µM, a TGI (KM12 colon) greater than 100 µM and a TGI (HT29 colon) greater than 100 µM.

With O=C1[C@@H]2C3C=CC([C@H]4C(=O)N(CO)C(=O)[C@@H]34)[C@@H]2C(=O)N1CO the TGI (OVCAR-4 ovarian) was greater than 100 µM, the TGI (786-0 renal) was greater than 63.6 µM and the TGI (CAKI-1 renal) was greater than 100 µM. It also gave a TGI (SF-539 CNS) greater than 100 µM, a TGI (DMS 273 small cell lung) greater than 57.3 µM and a TGI (KM20L2 colon) greater than 31.6 µM. It also gave a TGI (K-562 leukemia) greater than 100 µM, a TGI (NCI-H522 lung) greater than 56.5 µM and a TGI (UO-31 renal) greater than 100 µM. For the same compound, the TGI (MALME-3M melanoma) was greater than 100 µM, the TGI (SK-MEL-2 melanoma) was greater than 100 µM and the TGI (SNB-75 CNS) was greater than 100 µM. For the same compound, the TGI (SW-620 colon) was greater than 65.5 µM, the TGI (HCC-2998 colon) was greater than 100 µM and the TGI (SK-MEL-5 melanoma) was greater than 100 µM. It also gave a TGI (SNB-78 CNS) greater than 100 µM, a TGI (DLD-1 colon) greater than 74.1 µM and a TGI (SF-268 CNS) greater than 77.7 µM. The TGI (LOX IMVI melanoma) was greater than 61 µM, the TGI (IGROV1 ovarian) was greater than 100 µM and the TGI (OVCAR-3 ovarian) was greater than 100 µM. It also gave a TGI (RPMI-8226 leukemia) of 49.5 µM, a TGI (HOP-62 NSCLC) greater than 100 µM and a TGI (TK-10 renal) greater than 100 µM. For the same compound, the TGI (NCI-H460 lung) was greater than 55.1 µM, the TGI (ACHN renal) was greater than 83.5 µM and the TGI (SNB-19 CNS) was greater than 100 µM. It also gave a TGI (U251 CNS) greater than 100 µM, a TGI (COLO 205 colon) greater than 77.8 µM and a TGI (M14 melanoma) greater than 75.2 µM. For the same compound, the TGI (MOLT-4 leukemia) was greater than 100 µM, the TGI (HCT-15 colon) was greater than 56.7 µM and the TGI (M19-MEL melanoma) was greater than 58.8 µM. It also gave a TGI (NCI-H226 lung) greater than 100 µM, a TGI (SK-MEL-28 melanoma) greater than 100 µM and a TGI (RXF 393 renal) greater than 77.8 µM. For the same compound, the TGI (NCI-H23 lung) was greater than 100 µM, the TGI (SF-295 CNS) was greater than 100 µM and the TGI (A549 NSCLC) was greater than 100 µM. For the same compound, the TGI (DMS 114 small cell lung) was greater than 62.2 µM, the TGI (OVCAR-8 ovarian) was 97.6 µM and the TGI (UACC-62 melanoma) was greater than 100 µM. For the same compound, the TGI (SN12C renal) was greater than 100 µM, the TGI (HCT-116 colon) was greater than 57.4 µM and the TGI (LXFL 529 NSCLC) was greater than 100 µM. For the same compound, the TGI (EKVX NSCLC) was greater than 100 µM, the TGI (SK-OV-3 ovarian) was greater than 100 µM and the TGI (A498 renal) was greater than 100 µM. For the same compound, the TGI (OVCAR-5 ovarian) was greater than 100 µM, the TGI (CCRF-CEM leukemia) was 59.3 µM and the TGI (HL-60(TB) leukemia) was 49.3 µM. It also gave a TGI (HOP-18 NSCLC) of 86.4 µM, a TGI (UACC-257 melanoma) greater than 100 µM and a TGI (XF 498 CNS) greater than 100 µM. The TGI (HOP-92 NSCLC) was greater than 100 µM, the TGI (KM12 colon) was greater than 100 µM and the TGI (HT29 colon) was greater than 100 µM.
